Measurements from paper PMC5004293, “Characterization of FRM-36143 as a new γ-secretase modulator for the potential treatment of familial Alzheimer’s disease” (Alzheimer's Research & Therapy, 2016).
Entries after “also recorded” stand apart in the source; their conditions may differ.

Test system: γ-secretase
Test: Acute oral treatment of wild-type mice, brain Aβ peptides
Type: in vivo, mouse
Experimental: For in vivo assessment of compound efficacy, brain tissue and cerebrospinal fluid (CSF) were collected, snap frozen in liquid nitrogen, and stored at −80 °C. Brain hemispheres were homogenized in 0.6 % diethylamine (DEA) in 50 mM NaCl containing protease inhibitor cocktail (cOmplete mini, EDTA-free, Roche) using sonication (Branson) at 23 % amplitude for 30 s. Homogenates were spun at 227,000 × g for 25 min at 4 °C. Supernatants were diluted fivefold in PBS-T (0.05 % Tween-20) containing 0.67 % BSA and added to the ELISA plate. For CSF, samples were diluted threefold in the PBS-T/BSA buffer. Detection was performed using the SuperSignal™ ELISA Femto substrate (Thermo Fisher), and luminescence was read on an EnVision plate reader (Perkin Elmer).
Mice and rats were maintained on 12/12 h light/dark cycle with food available ad libitum. Drug treatment was prepared in a vehicle of 1 % carboxymethylcellulose (CMC):Tween80 (99.5:0.5). Twelve-week-old wild-type male mice (129S6, Taconic Biosciences, Hudson, NY, USA) or rats (Wistar, Charles River Laboratories) were administered compound p.o. without prior fasting and euthanized by CO2 asphyxiation at specified times post-dosing. After extraction of the brain, the olfactory bulb and hindbrain were removed and the cerebral hemispheres separated (mice) or cut in 4 pieces (rats). The cerebellum was removed for bioanalysis of the compound. CSF was collected from the cisterna magna and blood from a cardiac puncture.

[1] = WT mice, single oral dose 30 mg/kg, 6 h post-treatment
[2] = mice, time course 0.5-24 h, 30 mg/kg p.o.
[3] = mice, time course, 30 mg/kg p.o.

**Q.** What does the source list for `COc1nc(C2=NOC[C@H](c3cc4ccccc4o3)N2)ccc1-n1cnc(C)c1` [FRM-36143, (R)-5-(benzofuran-2-yl)-3-(6-methoxy-5-(4-methyl-1H-imidazol-1-yl)pyridin-2-yl)-5,6-dihydro-4H-1,2,4-oxadiazine]?
**A.** Brain Aβ37 increase vs vehicle [1]: 3.2 fold; Brain Aβ42 reduction vs vehicle [1]: 43%; Calculated AUC0→24h of brain Aβ40 reduction (mice, 30 mg/kg p.o.): 31%; Calculated AUC0→24h of brain Aβ42 reduction (mice, 30 mg/kg p.o.): 34%; Peak reduction of brain Aβ40 [2]: 40%; Peak reduction of brain Aβ42 [2]: 45%; Change of brain Aβ37 and Aβ38 (mice, time course, 10 mg/kg p.o.): induced an increase in Aβ37 and Aβ38; Reduction of brain Aβ40 and Aβ42 (mice, time course, 10 mg/kg p.o., 10 mg/kg): did not reduce Aβ40 and Aβ42 to a great extent; also recorded: did not observe any efficacy; Peak increase of brain Aβ37 [3]: 3.1 fold; Peak increase of brain Aβ38 [3]: 2 fold
